For eight compounds, IC50, CC50 and AC50 results are on record in ChEMBL document CHEMBL1201862, “PubChem BioAssay data set” (2004).

Type in all cases: functional
For one assay, the target named is T1, Caspase-3 (Homo sapiens, UniProt P42574).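 Note: Dose-response selectivity test against caspase-3 for candidate inhibitors of sentrin-specific proteases (SENPs).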
T1 sequence (P42574 whole entry): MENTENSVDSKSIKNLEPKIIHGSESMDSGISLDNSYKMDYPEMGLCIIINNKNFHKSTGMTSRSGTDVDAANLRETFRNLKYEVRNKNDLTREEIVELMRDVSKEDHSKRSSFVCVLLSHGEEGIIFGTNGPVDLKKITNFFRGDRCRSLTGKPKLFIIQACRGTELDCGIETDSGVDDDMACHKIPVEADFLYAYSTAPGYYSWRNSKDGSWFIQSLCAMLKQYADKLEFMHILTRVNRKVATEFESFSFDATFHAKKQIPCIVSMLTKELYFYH

Assay [1] deals with T2, Sentrin-specific protease 7 (Homo sapiens, UniProt Q9BQF6).
T2 sequence (Q9BQF6 whole entry): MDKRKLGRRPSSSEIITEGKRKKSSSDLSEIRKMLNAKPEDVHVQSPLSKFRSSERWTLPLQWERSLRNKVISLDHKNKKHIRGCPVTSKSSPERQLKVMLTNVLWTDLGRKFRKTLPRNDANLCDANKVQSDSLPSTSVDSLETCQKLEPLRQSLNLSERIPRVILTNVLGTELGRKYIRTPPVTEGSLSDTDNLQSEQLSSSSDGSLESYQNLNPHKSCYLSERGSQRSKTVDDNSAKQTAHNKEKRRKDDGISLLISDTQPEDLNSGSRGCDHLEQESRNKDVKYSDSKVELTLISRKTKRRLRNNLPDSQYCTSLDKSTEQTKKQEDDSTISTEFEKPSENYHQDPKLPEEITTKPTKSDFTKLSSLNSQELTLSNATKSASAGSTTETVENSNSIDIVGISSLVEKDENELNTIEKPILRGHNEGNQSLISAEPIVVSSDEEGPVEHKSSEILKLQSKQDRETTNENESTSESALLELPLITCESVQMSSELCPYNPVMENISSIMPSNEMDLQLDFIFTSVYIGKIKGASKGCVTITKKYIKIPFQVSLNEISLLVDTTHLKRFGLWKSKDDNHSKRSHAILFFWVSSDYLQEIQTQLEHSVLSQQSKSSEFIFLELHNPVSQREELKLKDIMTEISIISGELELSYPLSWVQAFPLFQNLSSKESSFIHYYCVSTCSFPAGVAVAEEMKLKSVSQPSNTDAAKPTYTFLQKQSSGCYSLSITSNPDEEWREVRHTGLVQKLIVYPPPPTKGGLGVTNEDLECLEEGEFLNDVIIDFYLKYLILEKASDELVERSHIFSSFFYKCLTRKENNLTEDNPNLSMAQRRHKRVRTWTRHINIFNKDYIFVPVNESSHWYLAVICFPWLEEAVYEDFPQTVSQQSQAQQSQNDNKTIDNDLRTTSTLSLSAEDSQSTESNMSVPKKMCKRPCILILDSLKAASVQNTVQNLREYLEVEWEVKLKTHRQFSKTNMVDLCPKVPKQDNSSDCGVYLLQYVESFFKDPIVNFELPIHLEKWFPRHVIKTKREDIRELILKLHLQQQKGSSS

In assay [2] the target is T3, Sentrin-specific protease 6 (Homo sapiens, UniProt Q9GZR1).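 Note: Luminescence-based dose-response confirmatory assay of SENP6 inhibition, following up an ultra-high-throughput screen.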
T3 sequence (Q9GZR1 whole entry): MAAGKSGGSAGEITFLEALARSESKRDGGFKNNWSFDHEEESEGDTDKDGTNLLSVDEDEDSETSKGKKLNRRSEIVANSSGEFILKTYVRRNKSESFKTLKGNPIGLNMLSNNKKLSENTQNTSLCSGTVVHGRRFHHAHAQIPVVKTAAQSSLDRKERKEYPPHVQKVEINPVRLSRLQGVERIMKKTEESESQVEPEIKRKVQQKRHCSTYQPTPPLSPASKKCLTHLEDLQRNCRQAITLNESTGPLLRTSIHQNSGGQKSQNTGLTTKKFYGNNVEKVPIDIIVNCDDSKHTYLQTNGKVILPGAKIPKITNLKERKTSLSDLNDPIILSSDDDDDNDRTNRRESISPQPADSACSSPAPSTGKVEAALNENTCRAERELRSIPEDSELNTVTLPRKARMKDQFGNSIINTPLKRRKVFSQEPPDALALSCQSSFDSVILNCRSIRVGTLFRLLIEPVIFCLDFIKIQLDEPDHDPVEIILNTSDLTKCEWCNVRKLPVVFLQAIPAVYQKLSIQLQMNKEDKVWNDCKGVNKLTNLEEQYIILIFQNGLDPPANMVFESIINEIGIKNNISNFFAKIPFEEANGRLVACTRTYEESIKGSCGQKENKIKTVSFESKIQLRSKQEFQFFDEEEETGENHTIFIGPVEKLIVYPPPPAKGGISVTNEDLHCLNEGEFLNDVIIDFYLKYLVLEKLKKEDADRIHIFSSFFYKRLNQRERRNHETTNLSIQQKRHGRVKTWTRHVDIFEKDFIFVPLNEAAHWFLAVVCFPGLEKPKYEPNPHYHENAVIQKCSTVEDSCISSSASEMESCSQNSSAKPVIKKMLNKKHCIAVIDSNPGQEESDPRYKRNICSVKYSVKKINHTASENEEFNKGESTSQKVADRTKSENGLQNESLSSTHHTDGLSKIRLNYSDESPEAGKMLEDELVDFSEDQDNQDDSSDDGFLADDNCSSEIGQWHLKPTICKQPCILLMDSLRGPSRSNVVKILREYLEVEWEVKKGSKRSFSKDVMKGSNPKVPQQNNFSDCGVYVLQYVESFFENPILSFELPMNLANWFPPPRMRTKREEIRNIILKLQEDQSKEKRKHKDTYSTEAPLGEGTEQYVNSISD

In assay [3] the target is T4, Sentrin-specific protease 8 (Homo sapiens, UniProt Q96LD8).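 Note: luminescence read-out of SENP8 inhibition, dose-response confirmation following an ultra-high-throughput screen.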
T4 sequence (Q96LD8 whole entry): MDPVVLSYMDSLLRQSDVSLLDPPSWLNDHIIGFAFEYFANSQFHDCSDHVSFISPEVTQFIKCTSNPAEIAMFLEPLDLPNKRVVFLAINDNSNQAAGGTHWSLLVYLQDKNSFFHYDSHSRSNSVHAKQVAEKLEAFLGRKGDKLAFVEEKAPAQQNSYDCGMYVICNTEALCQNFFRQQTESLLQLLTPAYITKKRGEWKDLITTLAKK

For assay [4], the target named is T5, Apoptotic protease-activating factor 1 (Homo sapiens, UniProt O14727).
T5 sequence (O14727 whole entry): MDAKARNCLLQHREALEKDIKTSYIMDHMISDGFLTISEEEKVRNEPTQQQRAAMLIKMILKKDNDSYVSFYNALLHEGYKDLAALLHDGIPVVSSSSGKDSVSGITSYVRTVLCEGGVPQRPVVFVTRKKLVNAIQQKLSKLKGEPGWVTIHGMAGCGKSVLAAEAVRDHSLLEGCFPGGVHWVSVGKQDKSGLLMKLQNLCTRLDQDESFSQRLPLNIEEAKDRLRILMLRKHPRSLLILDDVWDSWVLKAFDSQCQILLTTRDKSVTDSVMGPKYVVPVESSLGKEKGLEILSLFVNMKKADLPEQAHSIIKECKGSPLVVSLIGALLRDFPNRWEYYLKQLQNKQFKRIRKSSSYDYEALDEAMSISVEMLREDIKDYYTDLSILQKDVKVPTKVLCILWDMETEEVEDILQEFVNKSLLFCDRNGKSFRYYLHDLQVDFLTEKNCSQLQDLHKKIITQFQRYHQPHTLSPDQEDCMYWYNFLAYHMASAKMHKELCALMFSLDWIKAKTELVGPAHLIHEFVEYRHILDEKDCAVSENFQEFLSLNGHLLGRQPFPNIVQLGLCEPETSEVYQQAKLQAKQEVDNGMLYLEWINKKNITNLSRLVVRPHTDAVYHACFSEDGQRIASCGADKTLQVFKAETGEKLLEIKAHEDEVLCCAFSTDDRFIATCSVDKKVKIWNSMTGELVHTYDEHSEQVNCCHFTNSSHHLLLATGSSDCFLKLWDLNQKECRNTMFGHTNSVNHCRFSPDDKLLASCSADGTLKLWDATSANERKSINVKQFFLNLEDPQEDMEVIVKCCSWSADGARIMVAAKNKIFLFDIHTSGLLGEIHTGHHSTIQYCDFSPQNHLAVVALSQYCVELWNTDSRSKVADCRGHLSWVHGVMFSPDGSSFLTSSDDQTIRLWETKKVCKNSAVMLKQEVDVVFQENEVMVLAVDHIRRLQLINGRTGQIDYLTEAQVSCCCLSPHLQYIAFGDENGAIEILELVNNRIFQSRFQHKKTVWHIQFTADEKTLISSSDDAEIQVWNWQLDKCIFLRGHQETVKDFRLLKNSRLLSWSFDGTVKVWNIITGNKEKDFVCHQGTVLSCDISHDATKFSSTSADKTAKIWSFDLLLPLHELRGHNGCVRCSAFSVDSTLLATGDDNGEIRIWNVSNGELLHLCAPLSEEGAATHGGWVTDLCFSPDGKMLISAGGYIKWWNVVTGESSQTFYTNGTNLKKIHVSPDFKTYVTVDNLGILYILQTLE

A short description of assay [5]: viability of uninfected HEp-2 cells – cell-based, HTS, cytotoxicity control for RSV inhibitor project, dose response (AID 2410). Particulars: human respiratory syncytial virus.
Another assay has as its target Protein Wnt-3a (Mus musculus, UniProt P27467). Nature of the assay: antagonism of Wnt3a pathway luciferase reporter – Wnt-LIGHT cells, luminescence, selectivity assay for Gli-SUFU antagonist project, dose response (AID 651570).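 Note: Wnt-LIGHT reporter cells stimulated with conditioned medium from Wnt3a-producing cells.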 Particulars: read-out: IC50_Mean. (In a reporter assay the amount or activity of a reporter protein is the signal.)
The nature of assay [6]: bead-based luminescence quenchers, dual-tagged ARNT – biochemical, AlphaScreen, cherry-pick, artefact control for ARNT-TACC3 interaction inhibitor project, dose response (AID 651705).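 Note: AlphaScreen bead proximity signal that flags compounds interfering with the detection technology; potency reflects signal decrease which marks the compound as an assay artifact.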 Background: Bead proximity is the source of the signal in Alpha formats.
Assay [7] can be described thus: reduction of Shn3 3'UTR-driven luciferase in osteoblasts – cell-based, Clone20 osteoblasts, firefly luciferase, cherry-picked, dose response (AID 624132).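 Note: firefly luciferase luminescence from reporter carrying the Shn3 3'UTR in osteoblasts.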
Assay [8] can be described thus: loss of viability in HepG2 cells – cell-based, CellTiter-Glo, cherry-picked, cytotoxicity control for Shn3 inhibitor project, dose response (AID 624134).

Each structure is given as a SMILES string. Calls of active or inactive are those of the source.

Sequence of Protein Wnt-3a (P27467 whole entry): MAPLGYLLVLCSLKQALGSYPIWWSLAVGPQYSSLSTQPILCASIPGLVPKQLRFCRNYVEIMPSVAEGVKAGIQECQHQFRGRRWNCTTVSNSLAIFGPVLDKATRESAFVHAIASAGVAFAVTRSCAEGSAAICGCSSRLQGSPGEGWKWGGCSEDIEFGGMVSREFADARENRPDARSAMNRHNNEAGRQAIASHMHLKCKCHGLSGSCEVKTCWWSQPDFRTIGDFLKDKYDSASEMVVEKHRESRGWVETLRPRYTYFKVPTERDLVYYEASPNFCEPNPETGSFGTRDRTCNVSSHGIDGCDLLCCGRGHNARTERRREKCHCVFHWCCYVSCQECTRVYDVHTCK

Consider `Nn1c(SCc2ccccc2)nc2c(cnn2-c2ccccc2)c1=O`, for which the IC50 on Caspase-3 was 36.1 µM (active); in [1], 11.4 µM (active); in assay [2], > 100 µM (inactive); in [3], > 100 µM (inactive).

For `O=C1NNC(c2ccccc2)=N/C1=C\c1ccc(Cl)cc1`, in [4], the IC50 was 22.9 µM (active).

Usually CC50 stands for the concentration at which the toxic effect on the cells reaches its halfway point. With `O=S(=O)(c1ccc(Br)cc1)N1CCN(c2ccc3nnc(-c4ccccc4)n3n2)CC1`, in assay [5], the CC50 was 32.9 µM (active). In assay [4], the IC50 is 8.5 µM (active).

With `CCOc1ccc(NC(=S)NNc2ccnc3cc(Cl)ccc23)cc1`, the IC50 at Protein Wnt-3a is 11.4 µM (active).

As to `O=C(Cn1cc(SCc2ccc(F)cc2)c2ccccc21)N1CCOCC1`, the IC50 on Caspase-3 is 21.1 µM (active); in assay [1], 6.95 µM (active); in assay [2], 21.1 µM (active); in [3], 23.2 µM (active).

One may read the AC50 as the concentration at which the activity in the assay is half-maximal. Take `C[C@H](NC(=O)c1ccco1)C(=O)Nc1nc(-c2ccccn2)cs1`: in [6], the AC50 was 90.1 µM (active).

With `COc1ccc(-c2noc(CCCCC(=O)N3CCN(c4cc(C)ccc4C)CC3)n2)cc1`, the AC50 is 1.75 µM (active) in assay [7] and 2.2 µM (active) in [8]. For the same compound, the IC50 on Protein Wnt-3a is 2.84 µM (active).

On to `O=C(C[C@@H]1C/C=C\C[C@@H](NC(=O)OCC2c3ccccc3-c3ccccc32)C(=O)OC[C@@H](Cc2ccccc2)NC1=O)NCCO`, for which, on Protein Wnt-3a, the IC50 was 13.5 µM (active).
